One assay has as its target T1, hVIPR1 (Homo sapiens, UniProt P32241).
T1 construct: expressed in transfected cells; host or cells: transient transfection with CAMYEL
T1 sequence (P32241 31-457): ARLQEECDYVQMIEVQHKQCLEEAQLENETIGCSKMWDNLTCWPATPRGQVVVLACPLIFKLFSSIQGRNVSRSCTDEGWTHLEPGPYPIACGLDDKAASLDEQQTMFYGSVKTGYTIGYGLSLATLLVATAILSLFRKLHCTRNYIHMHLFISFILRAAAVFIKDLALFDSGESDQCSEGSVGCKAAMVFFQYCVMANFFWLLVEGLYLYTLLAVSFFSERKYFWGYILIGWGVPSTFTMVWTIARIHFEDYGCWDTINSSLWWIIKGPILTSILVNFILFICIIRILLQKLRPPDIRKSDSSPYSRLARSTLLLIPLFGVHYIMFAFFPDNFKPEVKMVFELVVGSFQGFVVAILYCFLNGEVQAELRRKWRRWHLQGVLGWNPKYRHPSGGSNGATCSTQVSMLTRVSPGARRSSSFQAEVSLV
In words: CAMYEL BRET cAMP assay in transient cell lines expressing hVIPR1. Format: cell-based. Particulars: transient cell lines expressing hVIPR1 and CAMYEL (FIG. 7). The text has this:
These assays are now being used for reliable and rapid quantification of VIPR2 responses to various antagonists under development for this receptor. This assay can also be used to evaluate agonists to VIPR2 and allosteric compounds, in addition to addresing the functional selectivity of different compounds, as it is possible to address multiple pathways effected by modulation of VIPR2 using this second messenger detection systems (cAMP and β-arrestin). This cellular assay for the detection of […] is applicable to multiple members of the […]. To this end lines were also developed expressing CAMYEL together with VIPR1 and PACAP1R (both the human and mouse forms) using transient transfection. This allows for the confirmation of specificity of novel antagonists to the VIPR2 receptor in addition to providing the ability to assay VIPR1 and PACAPR1 antagonists, agonists and allosteric modulators. […] These assays allow assays of VIPR2 antagonist, agonists and other compounds acting at […] in a specific, selective, rapid and medium to high throughput manner.

Another assay addresses T2, VIPR2 (Homo sapiens, UniProt P41587).
T2 construct: expressed in transfected cells
T2 sequence (P41587 24-438): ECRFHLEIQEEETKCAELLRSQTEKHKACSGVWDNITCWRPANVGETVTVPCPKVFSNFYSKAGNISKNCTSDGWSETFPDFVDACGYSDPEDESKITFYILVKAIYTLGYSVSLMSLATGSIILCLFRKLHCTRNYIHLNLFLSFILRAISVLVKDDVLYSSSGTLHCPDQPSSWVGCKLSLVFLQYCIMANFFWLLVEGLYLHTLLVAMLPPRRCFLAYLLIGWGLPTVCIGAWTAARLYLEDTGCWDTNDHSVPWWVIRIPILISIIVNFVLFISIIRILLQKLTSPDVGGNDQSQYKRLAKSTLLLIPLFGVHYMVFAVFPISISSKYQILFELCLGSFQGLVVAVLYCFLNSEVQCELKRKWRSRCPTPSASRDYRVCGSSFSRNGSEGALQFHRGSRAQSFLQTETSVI
Kind of assay: BRET-based VIPR2 activation assay (CAMYEL cAMP sensor, CHO cells, VIP background). Particulars: compared with Compound 1 or other compounds (FIG. 1C, FIG. 5B). Format: cell-based. The procedure: FIG. 5A-B. Results of BRET-based VIPR2 activation assays in cells expressing both the VIPR2 receptor and CAMYEL (see FIG. 1A for schematic). a) Inhibitory dose-response curves on treatment of CHO cells with increasing concentrations of a batch of antagonists against a background of VIP activation (VIP=5 nM).
In such a system, a detector cell is used which expresses both the VIPR2 receptor and “CAMYEL,” a YFP-Epac-RLuc8 BRET sensor construct. This construct includes Epac1, a guanine nucleotide exchange factor activated by direct binding of cAMP, fused with an enhanced YFP and Renilla luciferase 8 (Rluc8) allowing BRET upon cAMP-induced conformational changes (Jiang et al., 2007, J Biol Chem. 282:10576-10584). In response to elevated cAMP levels, there is a conformational change in Epac and therefore a change in the proximity of the fused chromophores, Rluc8 and YFP, resulting in measurable energy transfer. Coexpression of this BRET construct with VIPR2. optionally tagged at the N-terminus with a signal peptide and FLAG epitope (SF-VIPR2), for example in HEK293 cells, allows for detection of a VIPR2-specific response to cAMP. BRET readout may be calculated by quantifying the ratio of the light emitted by the acceptor, YFP (λ=525 nm), over the emission from the donor, RLuc8 (λ=485 nm). The proximity of the donor and acceptor, and therefore the BRET ratio, decreases in the presence of cAMP. In non-limiting specific embodiments, a stable cell line may be generated for this assay using the Flp-In T-Rex system in HEK293 cells. This system allows site-specific single copy integration of the gene of interest and control of expression levels using the Tet-repressor site making receptor expression tetracycline-inducible. For example, a CAMYEL and VIPR2 expressing line may be induced with 0.01 μg/ml tetracycline, then, 24 hours later cells may be collected and distributed into 96-well plates. After treatment with candidate inhibitor compound, for example at 5, 1 and 0.5 μM concentrations, cells may be incubated with the light emitting luciferin, coelenterazine H, for 5 min and incubated for 5 min with VIP at increasing concentrations, for example ranging from 100 pM to 10 μM. The fluorescence and luminescence may then be quantified, for example using a PHERAstar (BMG) plate reader. […] Alternatively, analogous experiments may be performed using human cells harvested from a patient having a VIPR2 copy number variation, for example (but not by way of limitation) pluripotent stem cells prepared from such a patient and then transfected with a CAMYEL construct.
A series of compounds were prepared using a synthetic method analogous to that set forth in Scheme 1, above, and then tested for their ability to inhibit VIP-induced cAMP elevation and β-arrestin recruitment, as described herein (Discoverx Corporation, Fremont, Calif., US). Compound activities were also tested in a BRET-based assay, as described herein. The results are shown below in Tables 1-4, above.
Numerous cellular assays were developed that were able to detect VIP responses absent of interference from non-specific vasopressin receptors using this CHO based system. VIPR2 is a Gs coupled receptor. Activation of VIPR2 by VIP leads to both an elevation in cAMP signaling and the recruitment of β-arrestin. A variety of combinations can be transiently transfect into these CHO cells for the assessment of cellular responses to VIP. For the BRET readout CHO cell lines expressing an YFP-Epac-RLuc8 (CAMYEL) BRET sensor were used to detect changes in cAMP. This construct includes Epac1, a guanine nucleotide exchange factor activated by direct binding of cAMP, fused to an enhanced YFP and RLuc8 allowing a change in BRET upon cAMP-induced conformational changes. The key for medium to high throughput screening assays is the use of stable cell lines allowing the continuous assaying of multiple compounds with the ability to generate large numbers of cells for rapid use. […]

From patent publication US20150241410A1, “INHIBITORS OF CENTRAL NERVOUS SYSTEM VASOACTIVE INHIBITORY PEPTIDE RECEPTOR 2” (The Trustees Of Columbia University In The City Of New York, priority 2012, published 2015) come the findings set out here.

SMILES strings stand for the structures.

As for `CC(=O)c1ccc(S(=O)(=O)NC[C@@H](O)C[C@@H](Cc2ccccc2)C(=O)N[C@H]2c3ccccc3C[C@H]2O)cc1` [K], the “specificity for VIPR2 over hVIPR1” value at hVIPR1 is “VIPR2 specificity”. The “VIPR2 inhibition in BRET-based assay, in words” value at VIPR2 is listed as “significantly improved activity as an antagonist at VIPR2”.
